According to ChEMBL document CHEMBL1123942, “Effect of acyclic pyrimidines related to 9-[(1,3-dihydroxy-2-propoxy)methyl]guanine on herpesviruses” (J Med Chem, 1988):

Key:
Human alphaherpesvirus 3 = test: Inhibition of growth of varicella zoster virus(VZV) by plaque reduction assay in vero cell line; type: functional, organism-based; conditions: Human alphaherpesvirus 3, Vero
Cytomegalovirus [1] = test: Inhibition of growth of human cytomegalovirus (HCMV) was determined by plaque reduction assay in human lung fibroblast cell line; type: functional, organism-based; conditions: Human betaherpesvirus 5, Fibroblast
Human alphaherpesvirus 2 = test: Inhibition of growth of herpes simplex virus (HSV-2) by plaque reduction assay in vero cell line; type: functional, organism-based; conditions: Human alphaherpesvirus 2, Vero
Human alphaherpesvirus 1 [2] = test: (§1) Inhibition of growth of herpes simplex virus (HSV-1) by plaque reduction assay in vero cell line; type: functional, organism-based; conditions: Human alphaherpesvirus 1, Vero
Cytomegalovirus [3] = test: Inhibition of growth of human cytomegalovirus (HCMV) by plaque reduction assay in human lung fibroblast cell line; type: functional, organism-based; conditions: Human betaherpesvirus 5, Fibroblast
Cytomegalovirus [4] = test: Inhibition of growth of human cytomegalovirus (HCMV) was determined by plaque reduction assay in Detroit cells; type: functional, organism-based; conditions: Human betaherpesvirus 5, Detroit
Human alphaherpesvirus 1 [5] = test: as §1; type: functional, organism-based, herpes simplex vir; conditions: Human alphaherpesvirus 1, Vero
Cytomegalovirus [6] = test: Inhibition of growth of human cytomegalovirus (HCMV) was determined by plaque reduction assay in human foreskin fibroblast cell line; type: functional, organism-based; conditions: Human betaherpesvirus 5, Fibroblast

Row | SMILES | IC50 (Human alphaherpesvirus 3) | IC50 (Cytomegalovirus [1]) | other results
1 | Nc1cn(COC(CO)CO)c(=O)[nH]c1=O | > 100 µM | – | –
2 | Nc1nc(=O)ccn1COC(CO)CO | – | > 100 µM | –
3 | CNc1ccn(COC(CO)CO)c(=O)n1 | – | > 100 µM | –
4 | Nc1ccn(COC(CO)CO)c(=S)n1 | – | > 100 µM | –
5 | O=c1[nH]c(=O)n(COC(CO)CO)cc1Br | > 100 µM | > 100 µM | –
6 | Nc1ccn(COC(CO)CO)c(=O)n1 | 17.1 µM | – | IC50 (Human alphaherpesvirus 2): 50 µM; IC50 (Human alphaherpesvirus 1 [2]): 140 µM; IC50 (Cytomegalovirus [3]): 11.2 µM
7 | COC(=O)CC(CC(=O)OC)OC[n+]1ccc(N)nc1 | – | > 100 µM | –
8 | Nc1nc2c(ncn2COC(CO)CO)c(=O)[nH]1 [GANCICLOVIR] | 2.8 µM | 3.4 µM | IC50 (Human alphaherpesvirus 2): 0.1 µM; IC50 (Human alphaherpesvirus 1 [2]): 0.1 µM
9 | Cc1cn(COC(CO)CO)c(=O)[nH]c1=O | > 100 µM | > 250 µM | –
10 | Cc1cn(COC(CO)CO)c(=O)nc1N | > 100 µM | > 100 µM | –
11 | Nc1nc(=O)n(COC(CO)CO)cc1F | – | 100 µM | –
12 | O=c1[nH]c(=O)n(COC(CO)CO)cc1I [IODACYCLUR] | > 100 µM | – | IC50 (Cytomegalovirus [4]): > 100 µM; IC50 (Human alphaherpesvirus 1 [5]): > 100 µM
13 | O=c1ccn(COC(CO)CO)c(=O)[nH]1 | > 100 µM | > 250 µM | –
14 | CN(C)c1ccn(COC(CO)CO)c(=O)n1 | > 100 µM | > 100 µM | IC50 (Human alphaherpesvirus 1 [2]): > 100 µM
15 | Nc1nc(=O)n(COC(CO)CO)cc1I | > 100 µM | > 100 µM | –
16 | Nc1ncn(COC(CO)CO)c(=O)n1 | – | 100 µM | IC50 (Human alphaherpesvirus 2): > 100 µM; IC50 (Cytomegalovirus [6]): > 25 µM
